Here are results for eight compounds from ChEMBL document CHEMBL3992499, “Synthesis, biological evaluation, QSAR and molecular dynamics simulation studies of potential fibroblast growth factor receptor 1 inhibitors for the treatment of gastric cancer” (Eur J Med Chem, 2017).

The test system of assay [1] is SGC-7901. As to the kind of experiment: Antiproliferative activity against human SGC7901 cells after 72 hrs by MTT assay. Conditions: SGC-7901, 72 h. A general note: Formazan colour is commonly taken as a measure of viable cells.
Assay [2] has as its system MGC-803. As to the kind of experiment: Antiproliferative activity against human MGC803 cells after 72 hrs by MTT assay. The conditions noted are these: MGC-803, 72 h.
In assay [3] the test system is BGC-823. As to the kind of experiment: Antiproliferative activity against human BGC823 cells after 72 hrs by MTT assay. The conditions noted are these: BGC-823, 72 h.
Assay [4] relates to SGC-7901. As to the kind of experiment: Cell cycle arrest in human SGC7901 cells assessed as accumulation at G0/G1 phase after 8 hrs by propidium iodide staining based flow cytometry. The assay is classed as functional. (In general: In flow cytometry, cells or beads pass a laser one at a time.)
Assay [5] concerns SGC-7901. As to the kind of experiment: Cell cycle arrest in human SGC7901 cells assessed as reduction in G2/M phase up to 20 uM after 8 hrs by propidium iodide staining based flow cytometry. Type of assay: functional.
Assay [6] deals with SGC-7901. Briefly: Induction of apoptosis in human SGC7901 cells assessed as downregulation of Cyclin D1 expression by western blot method. The assay is classed as functional, cell-based.
For assay [7], the system named is SGC-7901. As to the kind of experiment: Induction of apoptosis in human SGC7901 cells assessed as chromatin condensation after 12 hrs by Hoechst 33342 staining based fluorescence microscopic method. Type of assay: functional, cell-based.
Assay [8] concerns SGC-7901. As to the kind of experiment: Induction of apoptosis in human SGC7901 cells assessed as nuclear fragmentation up to 20 uM after 12 hrs by Hoechst 33342 staining based fluorescence microscopic method. The assay is classed as functional, cell-based.
In assay [9] the test system is SGC-7901. As to the kind of experiment: Induction of apoptosis in human SGC7901 cells assessed as increase in cleaved PARP expression level after 48 hrs by Western blot method. Type of assay: functional, cell-based. (In general: In western blotting, separated proteins are transferred to a membrane and probed.)
Assay [10] has as its system SGC-7901. As to the kind of experiment: Induction of apoptosis in human SGC7901 cells assessed as decrease in Bcl2 expression level after 48 hrs by Western blot method. Type of assay: functional, cell-based.
Assay [11] deals with SGC-7901. Briefly: Induction of apoptosis in human SGC7901 cells assessed as increase in cleaved PARP expression level at 10 uM after 48 hrs by Western blot method. Type of assay: functional, cell-based.
In assay [12] the test system is SGC-7901. As to the kind of experiment: Induction of apoptosis in human SGC7901 cells assessed as decrease in Bcl2 expression level at 10 uM after 48 hrs by Western blot method. Type of assay: functional, cell-based.

As a reminder, the IC50 is the point on the concentration scale where inhibition reaches its midpoint. Read a high IC50 as lower potency.

Active and inactive are the calls of the source. The rule behind the calls is not given here.

Turning to `COc1cc(/C=C2\CCC/C(=C\c3ccc(N4CCCCC4)cc3)C2=O)ccc1OC(=O)C(C)C`, the IC50 stood at 18.8 µM in assay [1], 11.8 µM in assay [2] and 31.5 µM in [3].
Turning to `COc1cc(/C=C2\CC/C(=C\c3ccc(OC(=O)C(C)C)c(OC)c3)C2=O)ccc1OC(=O)C(C)C`, the values for the IC50 in assay [1], in assay [2] and in [3] were 5.7 µM, 5 µM and 10.1 µM, respectively.
Turning to `CCN(CC)c1ccc(/C=C/C(=O)/C=C/c2ccc(O)c(OC)c2)cc1`, the IC50 in assay [1] was found to be 8.2 µM; in assay [2] it was 2.1 µM; in assay [3], 2.5 µM. Besides, the Activity entry in assay [4], in assay [6], in assay [7], in assay [9] and in assay [10] was “Dose-dependent effect” throughout. Besides, the result in assay [5], in assay [8], in assay [11] and in [12] was Active.
As to `CC(Cc1ccc(O)c(O)c1)C(C)Cc1ccc(O)c(O)c1` (configuration not stated) [NORDIHYDROGUAIARETIC ACID], the IC50 was greater than 60 µM in assay [1], 45.8 µM in assay [2] and greater than 60 µM in assay [3].
Take `COc1cc(/C=C/C(=O)/C=C/c2ccc(N3CCCC3)cc2)ccc1O`: the IC50 came to 8.2 µM in [1], 12.3 µM in assay [2] and 21.2 µM in [3].
For the compound `COc1cc(/C=C2\CC/C(=C\c3c[nH]c4ccc(Br)cc34)C2=O)ccc1O`, the values for the IC50 in [1], in assay [2] and in assay [3] were 9.6 µM, 2.6 µM and 2 µM, respectively. In addition, the Activity entry in assay [4], in [6], in [7], in assay [9] and in assay [10] was “Dose-dependent effect” each time. Besides, the result in assay [5], in assay [8], in assay [11] and in assay [12] was Active.
In the case of `COc1cc(CCc2cc(NC(=O)c3ccc(N4C[C@@H](C)N[C@@H](C)C4)cc3)n[nH]2)cc(OC)c1` [FEXAGRATINIB], the IC50 in assay [1] amounted to 2.8 µM; in assay [2], 6.2 µM; in assay [3], 7.9 µM.
For the compound `CCC(=O)Oc1ccc(/C=C2\CC/C(=C\c3ccc(OC(=O)CC)c(OC)c3)C2=O)cc1OC`, the IC50 in [1] is 4.7 µM; in assay [2], 8.3 µM; in assay [3], 11.9 µM.
